Test system: human platelets
Test: inhibition of aggregation of human platelets ex vivo
Format: cell-based
Settings: Platelet, read-out: IC50, inhibit aggregation of human platelets ex vivo

Structure (SMILES)	IC50 [nM]
COc1ccc(-c2cccc(Oc3ccc([N+](=O)[O-])cc3S(=O)(=O)NC(=O)NC(C)(C)C)c2)cc1 [TP20]	1 to 10
CC(C)(C)NC(=O)NS(=O)(=O)c1cc(C#N)ccc1Oc1cccc(-c2ccc(OC(F)(F)F)cc2)c1 [NTP43]	1 to 10
